Experimental findings from patent publication US12084472B2 (Ardelyx, Inc., priority 2015, dated 2024) are described below.

In the assay the target is T1, human TGR5 (Homo sapiens, UniProt Q8TDU6).
T1 construct: expressed in transfected cells; host or cells: HEK293
T1 sequence (Q8TDU6 1-330): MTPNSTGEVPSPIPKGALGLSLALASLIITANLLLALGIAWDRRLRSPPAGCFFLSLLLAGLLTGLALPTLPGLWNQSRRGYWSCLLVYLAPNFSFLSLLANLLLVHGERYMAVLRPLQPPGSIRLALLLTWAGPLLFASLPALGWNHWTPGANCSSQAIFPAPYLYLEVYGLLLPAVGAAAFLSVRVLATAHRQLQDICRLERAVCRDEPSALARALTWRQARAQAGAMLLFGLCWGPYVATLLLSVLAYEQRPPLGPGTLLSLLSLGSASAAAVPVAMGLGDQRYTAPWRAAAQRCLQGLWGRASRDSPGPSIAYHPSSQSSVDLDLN
The experiment in a line: Cell-based TGR5 assay (cAMP generation, HTRF). To be noted: HEK293 cells stably transfected with human TGR5; cAMP by HTRF; 30 minutes at 37° C.; read-out: pEC50 Human TGR5 (converted). Summed up:
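Read-out was HTRF detection of cAMP, converted to concentration via a standard curve and fitted (3-parameter logistic) for pEC50 and maximal response. Agonist stimulation used HEK293 cells stably transfected with human TGR5, incubated 30 min at 37° C in IBMX-containing buffer at 0.05 nM to 10 μM compound.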
`CNC(=O)CN(C[C@H](O)[C@@H](O)[C@H](O)[C@H](O)CO)C(=O)CCCCc1cc(Cl)c(COC2(c3cnccc3-c3ccccc3OC3CC3)CC2)cc1Cl` (stereo in doubt) [Compound I-219, 5-[2,5-dichloro-4-({1-[4-(2-cyclopropoxyphenyl)pyridin-3-yl]cyclopropoxy}methyl)phenyl]-N-[(methylcarbamoyl)methyl]-N-[(2S,3R,4R,5R)-2,3,4,5,6-pentahydroxyhexyl]pentanamide]: the EC50 is under 100 nM. The same measure for `O=C(NCCCCCc1cc(Cl)c(COC2(c3cnccc3-c3ccccc3OC3CC3)CC2)cc1Cl)NC[C@H](O)[C@@H](O)[C@H](O)[C@H](O)CO` (stereo in doubt) [Compound I-225, 1-{5-[2,5-dichloro-4-({1-[4-(2-cyclopropoxyphenyl)pyridin-3-yl]cyclopropoxy}methyl)phenyl]pentyl}-3-[(2S,3R,4R,5R)-2,3,4,5,6-pentahydroxyhexyl]urea]: under 100 nM. The same measure for `CS(=O)(=O)CCN(CCCCCc1cc(Cl)c(COC2(c3cnccc3-c3ccccc3OC3CC3)CC2)cc1Cl)C(=O)[C@@H](O)[C@@H](O)[C@H](O)[C@@H](O)CO` (stereo in doubt) [Compound I-226, (2S,3S,4R,5S)-N-{5-[2,5-dichloro-4-({1-[4-(2-cyclopropoxyphenyl)pyridin-3-yl]cyclopropoxy}methyl)phenyl]pentyl}-2,3,4,5,6-pentahydroxy-N-(2-methanesulfonylethyl)hexanamide]: under 100 nM. The same measure for `CCS(=O)(=O)CCN(CCCCCc1cc(Cl)c(COC2(c3cnccc3-c3ccccc3OC3CC3)CC2)cc1Cl)C(=O)[C@@H](O)[C@@H](O)[C@H](O)[C@@H](O)CO` (stereo in doubt) [Compound I-227, (2S,3S,4R,5S)-N-{5-[2,5-dichloro-4-({1-[4-(2-cyclopropoxyphenyl)pyridin-3-yl]cyclopropoxy}methyl)phenyl]pentyl}-N-[2-(ethanesulfonyl)ethyl]-2,3,4,5,6-pentahydroxyhexanamide]: under 100 nM. In the case of `CN(CCCCCc1cc(Cl)c(COC2(c3cnccc3-c3ccccc3OC3CC3)CC2)cc1Cl)C(=O)[C@@H](O)[C@@H](O)[C@H](O)[C@@H](O)CO` (stereo in doubt) [Compound I-228, (2S,3S,4R,5S)-N-{5-[2,5-dichloro-4-({1-[4-(2-cyclopropoxyphenyl)pyridin-3-yl]cyclopropoxy}methyl)phenyl]pentyl}-2,3,4,5,6-pentahydroxy-N-methylhexanamide], the EC50 was under 100 nM. As for `O=C(CCCCc1ccc(Cl)c(COC2(c3cnccc3-c3ccccc3OC3CC3)CC2)c1)NC[C@H](O)[C@@H](O)[C@H](O)[C@H](O)CO` (stereo in doubt) [Compound I-231, 5-[4-chloro-3-({1-[4-(2-cyclopropoxyphenyl)pyridin-3-yl]cyclopropoxy}methyl)phenyl]-N-[(2S,3R,4R,5R)-2,3,4,5,6-pentahydroxyhexyl]pentanamide], the EC50 was under 100 nM. The same measure for `CN(C[C@H](O)[C@@H](O)[C@H](O)[C@H](O)CO)C(=O)CCCCc1ccc(Cl)c(COC2(c3cnccc3-c3ccccc3OC3CC3)CC2)c1` (stereo in doubt) [Compound I-232, 5-[4-chloro-3-({1-[4-(2-cyclopropoxyphenyl)pyridin-3-yl]cyclopropoxy}methyl)phenyl]-N-methyl-N-[(2S,3R,4R,5R)-2,3,4,5,6-pentahydroxyhexyl]pentanamide]: under 100 nM; for `O=C(CCCCc1ccc(Cl)c(CNC2(c3cnccc3-c3ccccc3OC3CC3)CC2)c1)NC[C@H](O)[C@@H](O)[C@H](O)[C@H](O)CO` (stereo in doubt) [Compound I-233, 5-{4-chloro-3-[({1-[4-(2-cyclopropoxyphenyl)pyridin-3-yl]cyclopropyl}amino)methyl]phenyl}-N-[(2S,3R,4R,5R)-2,3,4,5,6-pentahydroxyhexyl]pentanamide]: under 100 nM; for `CN(C[C@H](O)[C@@H](O)[C@H](O)[C@H](O)CO)C(=O)CCCCc1ccc(Cl)c(CNC2(c3cnccc3-c3ccccc3OC3CC3)CC2)c1` (stereo in doubt) [Compound I-234, 5-{4-chloro-3-[({1-[4-(2-cyclopropoxyphenyl)pyridin-3-yl]cyclopropyl}amino)methyl]phenyl}-N-methyl-N-[(2S,3R,4R,5R)-2,3,4,5,6-pentahydroxyhexyl]pentanamide]: under 100 nM. The figure for `Cc1ccc(CCCCC(=O)NC[C@H](O)[C@@H](O)[C@H](O)[C@H](O)CO)cc1COC1(c2cnccc2-c2ccccc2OC2CC2)CC1` (stereo in doubt) [Compound I-235, 5-[3-({1-[4-(2-cyclopropoxyphenyl)pyridin-3-yl]cyclopropoxy}methyl)-4-methylphenyl]-N-[(2S,3R,4R,5R)-2,3,4,5,6-pentahydroxyhexyl]pentanamide] is under 100 nM; for `Cc1ccc(CCCCC(=O)N(C)C[C@H](O)[C@@H](O)[C@H](O)[C@H](O)CO)cc1COC1(c2cnccc2-c2ccccc2OC2CC2)CC1` (stereo in doubt) [Compound I-236, 5-[3-({1-[4-(2-cyclopropoxyphenyl)pyridin-3-yl]cyclopropoxy}methyl)-4-methylphenyl]-N-methyl-N-[(2S,3R,4R,5R)-2,3,4,5,6-pentahydroxyhexyl]pentanamide] it is under 100 nM; for `Cc1ccc(CCCCC(=O)NC[C@H](O)[C@@H](O)[C@H](O)[C@H](O)CO)cc1CNC1(c2cnccc2-c2ccccc2OC2CC2)CC1` (stereo in doubt) [Compound I-237, 5-{3-[({1-[4-(2-cyclopropoxyphenyl)pyridin-3-yl]cyclopropyl}amino)methyl]-4-methylphenyl}-N-[(2S,3R,4R,5R)-2,3,4,5,6-pentahydroxyhexyl]pentanamide] it is 126 to 1000 nM. Consider `Cc1ccc(CCCCC(=O)N(C)C[C@H](O)[C@@H](O)[C@H](O)[C@H](O)CO)cc1CNC1(c2cnccc2-c2ccccc2OC2CC2)CC1` (stereo in doubt) [Compound I-238, 5-{3-[({1-[4-(2-cyclopropoxyphenyl)pyridin-3-yl]cyclopropyl}amino)methyl]-4-methylphenyl}-N-methyl-N-[(2S,3R,4R,5R)-2,3,4,5,6-pentahydroxyhexyl]pentanamide], for which the EC50 is 126 to 1000 nM. The same measure for `O=C(NCCCCc1ccc(Cl)c(CNC2(c3cnccc3-c3ccccc3OC3CC3)CC2)c1)NC[C@H](O)[C@@H](O)[C@H](O)[C@H](O)CO` (stereo in doubt) [Compound I-241, 1-(4-{4-chloro-3-[({1-[4-(2-cyclopropoxyphenyl)pyridin-3-yl]cyclopropyl}amino)methyl]phenyl}butyl)-3-[(2S,3R,4R,5R)-2,3,4,5,6-pentahydroxyhexyl]urea]: 126 to 1000 nM; for `O=C(NCCCCNS(=O)(=O)c1ccc(Cl)c(COC2(c3cnccc3-c3ccccc3OC3CC3)CC2)c1)NC[C@H](O)[C@@H](O)[C@H](O)[C@H](O)CO` (stereo in doubt) [Compound I-401, 1-{4-[4-chloro-3-({1-[4-(2-cyclopropoxyphenyl)pyridin-3-yl]cyclopropoxy}methyl)benzenesulfonamido]butyl}-3-[(2S,3R,4R,5R)-2,3,4,5,6-pentahydroxyhexyl]urea]: under 100 nM; for `CN(CCCCNC(=O)NC[C@H](O)[C@@H](O)[C@H](O)[C@H](O)CO)S(=O)(=O)c1ccc(Cl)c(COC2(c3cnccc3-c3ccccc3OC3CC3)CC2)c1` (stereo in doubt) [Compound I-402, 1-{4-[N-methyl4-chloro-3-({1-[4-(2-cyclopropoxyphenyl)pyridin-3-yl]cyclopropoxy}methyl)benzenesulfonamido]butyl}-3-[(2S,3R,4R,5R)-2,3,4,5,6-pentahydroxyhexyl]urea]: under 100 nM. The figure for `O=C(NCCOCCNS(=O)(=O)c1ccc(Cl)c(COC2(c3cnccc3-c3ccccc3OC3CC3)CC2)c1)NC[C@H](O)[C@@H](O)[C@H](O)[C@H](O)CO` (stereo in doubt) [Compound I-403, 1-(2-{2-[4-chloro-3-({1-[4-(2-cyclopropoxyphenyl)pyridin-3-yl]cyclopropoxy}methyl)benzenesulfonamido]ethoxy}ethyl)-3-[(2S,3R,4R,5R)-2,3,4,5,6-pentahydroxyhexyl]urea] is under 100 nM; for `CN(CCOCCNC(=O)NC[C@H](O)[C@@H](O)[C@H](O)[C@H](O)CO)S(=O)(=O)c1ccc(Cl)c(COC2(c3cnccc3-c3ccccc3OC3CC3)CC2)c1` (stereo in doubt) [Compound I-404, 1-(2-{2-[N-methyl4-chloro-3-({1-[4-(2-cyclopropoxyphenyl)pyridin-3-yl]cyclopropoxy}methyl)benzenesulfonamido]ethoxy}ethyl)-3-[(2S,3R,4R,5R)-2,3,4,5,6-pentahydroxyhexyl]urea] it is under 100 nM; for `CN(CCCCCNC(=O)N[C@@H](CO)[C@@H](O)[C@H](O)[C@H](O)CO)S(=O)(=O)c1ccc(Cl)c(COC2(c3cnccc3-c3ccccc3OC3CC3)CC2)c1` (stereo in doubt) [Compound I-405, 1-{5-[N-methyl4-chloro-3-({1-[4-(2-cyclopropoxyphenyl)pyridin-3-yl]cyclopropoxy}methyl)benzenesulfonamido]pentyl}-3-[(2S,3R,4S,5R)-1,3,4,5,6-pentahydroxyhexan-2-yl]urea] it is under 100 nM.
